Measured values as given in ChEMBL document CHEMBL4765450, “The components and activities analysis of a novel anticoagulant candidate dHG-5” (Eur J Med Chem, 2020).
Active and inactive are the calls of the source. The calls are words filed in the database; no cut-off is given here.

How the values were obtained:
[1] = target: Prothrombin (Homo sapiens) (UniProt P00734); test: Inhibition of factor 2a (unknown origin) at IC50 preincubated for 1 min followed by chromogenic substrate addition and measured for 2 mins; settings: time 3.0 min
[2] = target: T1, Coagulation factor VII (Homo sapiens) (UniProt P08709); test: Inhibition of factor 7a (unknown origin) at IC50 using pefachrome factor VIIa as substrate preincubated for 1 min followed by chromogenic substrate addition and measured for 2 mins; settings: time 3.0 min
T1 sequence (whole entry): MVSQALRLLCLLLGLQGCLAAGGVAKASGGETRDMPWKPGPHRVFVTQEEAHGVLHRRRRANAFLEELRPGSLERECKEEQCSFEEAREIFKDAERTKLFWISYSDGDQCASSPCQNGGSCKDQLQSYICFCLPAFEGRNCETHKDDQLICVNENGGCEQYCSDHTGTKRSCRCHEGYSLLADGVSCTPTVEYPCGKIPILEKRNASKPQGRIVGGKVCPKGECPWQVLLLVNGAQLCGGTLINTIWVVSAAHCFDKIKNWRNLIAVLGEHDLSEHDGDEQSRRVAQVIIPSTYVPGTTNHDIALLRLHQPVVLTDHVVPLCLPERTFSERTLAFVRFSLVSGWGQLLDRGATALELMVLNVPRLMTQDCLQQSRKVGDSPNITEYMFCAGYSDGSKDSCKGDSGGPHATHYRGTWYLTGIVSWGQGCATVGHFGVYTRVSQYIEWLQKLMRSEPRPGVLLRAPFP

[3] = target: Coagulation factor X (Homo sapiens) (UniProt P00742); test: Inhibition of factor 10a (unknown origin) at IC50 preincubated for 1 min followed by chromogenic substrate addition and measured for 2 mins; settings: time 3.0 min
Chain of Coagulation factor X (Homo sapiens) (P00742 41-179 limits assumed): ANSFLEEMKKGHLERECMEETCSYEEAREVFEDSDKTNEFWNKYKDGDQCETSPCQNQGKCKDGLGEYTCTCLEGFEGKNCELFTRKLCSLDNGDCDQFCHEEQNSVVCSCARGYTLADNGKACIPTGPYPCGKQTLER
Chain of Coagulation factor X (Homo sapiens) (P00742 235-488 limits assumed): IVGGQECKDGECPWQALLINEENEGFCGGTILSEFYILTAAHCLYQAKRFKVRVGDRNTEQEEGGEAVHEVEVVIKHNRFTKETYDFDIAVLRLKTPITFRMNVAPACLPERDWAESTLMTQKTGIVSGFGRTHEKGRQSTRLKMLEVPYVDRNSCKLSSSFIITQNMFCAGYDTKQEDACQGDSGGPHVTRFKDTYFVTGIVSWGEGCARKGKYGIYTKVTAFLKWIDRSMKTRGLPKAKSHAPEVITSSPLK

[4] = target: Coagulation factor XI (Homo sapiens) (UniProt P03951); test: Inhibition of factor 11a (unknown origin) at IC50 using S-2366 as substrate preincubated for 1 min followed by chromogenic substrate addition and measured for 2 mins; settings: time 3.0 min
Chain of Coagulation factor XI (Homo sapiens) (P03951 19-387 limits assumed): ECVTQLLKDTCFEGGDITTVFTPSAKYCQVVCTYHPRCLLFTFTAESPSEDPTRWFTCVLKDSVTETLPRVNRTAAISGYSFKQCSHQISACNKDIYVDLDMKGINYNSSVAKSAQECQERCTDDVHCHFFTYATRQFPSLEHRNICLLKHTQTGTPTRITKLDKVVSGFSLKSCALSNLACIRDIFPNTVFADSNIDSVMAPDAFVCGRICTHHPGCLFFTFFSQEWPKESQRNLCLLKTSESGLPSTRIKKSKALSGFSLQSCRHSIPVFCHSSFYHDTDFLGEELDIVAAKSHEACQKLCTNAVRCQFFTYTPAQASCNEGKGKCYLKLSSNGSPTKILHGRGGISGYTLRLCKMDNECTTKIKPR
Chain of Coagulation factor XI (Homo sapiens) (P03951 388-625 limits assumed): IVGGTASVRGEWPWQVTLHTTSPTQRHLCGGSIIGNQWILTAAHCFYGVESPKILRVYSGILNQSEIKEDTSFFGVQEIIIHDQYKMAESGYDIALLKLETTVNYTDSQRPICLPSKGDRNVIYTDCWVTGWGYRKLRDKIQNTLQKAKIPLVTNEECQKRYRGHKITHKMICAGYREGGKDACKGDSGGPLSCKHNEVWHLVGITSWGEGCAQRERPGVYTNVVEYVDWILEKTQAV

[5] = target: T2, Coagulation factor XII (Homo sapiens) (UniProt P00748); test: Inhibition of factor 12a (unknown origin) at IC50 using kallikrein chromogenic substrate preincubated for 1 min followed by chromogenic substrate addition and measured for 2 mins; settings: time 3.0 min
T2 sequence (whole entry): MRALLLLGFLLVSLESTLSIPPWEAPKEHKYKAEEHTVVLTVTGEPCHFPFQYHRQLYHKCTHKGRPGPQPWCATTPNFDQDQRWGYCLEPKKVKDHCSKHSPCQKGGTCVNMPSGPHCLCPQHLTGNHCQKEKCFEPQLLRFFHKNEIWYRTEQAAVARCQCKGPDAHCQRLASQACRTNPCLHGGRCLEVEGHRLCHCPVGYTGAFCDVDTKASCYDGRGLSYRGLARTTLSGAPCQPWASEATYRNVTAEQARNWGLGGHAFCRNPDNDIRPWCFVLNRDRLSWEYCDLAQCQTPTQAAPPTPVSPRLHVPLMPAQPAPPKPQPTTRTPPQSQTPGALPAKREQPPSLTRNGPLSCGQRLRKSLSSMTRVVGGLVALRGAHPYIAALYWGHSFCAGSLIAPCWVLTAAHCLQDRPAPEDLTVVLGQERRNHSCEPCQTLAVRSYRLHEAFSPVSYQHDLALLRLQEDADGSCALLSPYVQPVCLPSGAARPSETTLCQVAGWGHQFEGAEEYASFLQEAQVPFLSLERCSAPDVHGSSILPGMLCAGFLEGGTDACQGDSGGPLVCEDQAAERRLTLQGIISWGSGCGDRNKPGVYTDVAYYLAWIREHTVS

[6] = target: Prothrombin (Homo sapiens) (UniProt P00734); test: Inhibition of factor 2a (unknown origin) at IC50 preincubated for 1 min followed by chromogenic substrate addition and measured for 2 mins in presence of AT-III; settings: time 3.0 min
[7] = target: T1, Coagulation factor VII (Homo sapiens); test: Inhibition of factor 7a (unknown origin) at IC50 using pefachrome factor VIIa as substrate preincubated for 1 min followed by chromogenic substrate addition and measured for 2 mins in presence of AT-III; settings: time 3.0 min
[8] = target: Coagulation factor X (Homo sapiens) (UniProt P00742); test: Inhibition of factor 10a (unknown origin) at IC50 preincubated for 1 min followed by chromogenic substrate addition and measured for 2 mins in presence of AT-III; settings: time 3.0 min
[9] = target: Coagulation factor XI (Homo sapiens) (UniProt P03951); test: Inhibition of factor 11a (unknown origin) at IC50 using S-2366 as substrate preincubated for 1 min followed by chromogenic substrate addition and measured for 2 mins in presence of AT-III; settings: time 3.0 min
[10] = target: T2, Coagulation factor XII (Homo sapiens); test: Inhibition of factor 12a (unknown origin) at IC50 using kallikrein chromogenic substrate preincubated for 1 min followed by chromogenic substrate addition and measured for 2 mins in presence of AT-III; settings: time 3.0 min
[11] = target: Prothrombin (Homo sapiens) (UniProt P00734); test: Inhibition of factor 2a (unknown origin) at IC90 preincubated for 1 min followed by chromogenic substrate addition and measured for 2 mins in presence of AT-III; settings: time 3.0 min
[12] = target: Coagulation factor XI (Homo sapiens) (UniProt P03951); test: Inhibition of factor 11a (unknown origin) at IC90 using S-2366 as substrate preincubated for 1 min followed by chromogenic substrate addition and measured for 2 mins in presence of AT-III; settings: time 3.0 min
[13] = target: Coagulation factor X (Homo sapiens) (UniProt P00742); test: Inhibition of factor 10a (unknown origin) at IC90 preincubated for 1 min followed by chromogenic substrate addition and measured for 2 mins in presence of AT-III relative to control; settings: time 3.0 min
Plasma [14] = test: (§1) Anticoagulation activity in human plasma assessed as drug level causing 20 times doubling of APTT preincubated for 2 mins followed by APTT reagent and measured after 3 mins by coagulometric method relative to dHG-5; type: functional; settings: time 5 min
[15] = target: T3, Coagulation factor IX/VIII (Homo sapiens) (UniProt P00740+P00451); test: (§2) Inhibition of human citrated plasma iXase (factor 8a-factor 9a complex) preincubated for 2 mins followed by factor 10 addition and measured after 1 min by FXa chromogenic substrate SXa-11 based assay relative to dHG-5; type: protein-complex assay; settings: time 3.0 min
Coagulation factor IX [16] = target: T4, Coagulation factor IX (Homo sapiens, UniProt P00740); test: Inhibition of factor 9a (unknown origin) binding to immobilized biotinylated oHG-11 by biolayer interferometry relative to dHG-5
T4 sequence (P00740 47-191 limits assumed): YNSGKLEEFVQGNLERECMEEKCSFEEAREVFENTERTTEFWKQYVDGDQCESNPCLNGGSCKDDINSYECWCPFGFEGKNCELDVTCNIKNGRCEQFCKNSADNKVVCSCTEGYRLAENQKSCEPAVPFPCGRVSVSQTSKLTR
T4 sequence (P00740 227-461 limits assumed): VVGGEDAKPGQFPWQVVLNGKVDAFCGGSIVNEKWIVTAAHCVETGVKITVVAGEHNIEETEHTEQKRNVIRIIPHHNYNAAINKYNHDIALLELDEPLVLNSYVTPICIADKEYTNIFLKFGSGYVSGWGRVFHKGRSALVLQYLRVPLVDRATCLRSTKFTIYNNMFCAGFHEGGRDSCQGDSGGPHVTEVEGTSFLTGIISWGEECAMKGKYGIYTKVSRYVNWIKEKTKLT

Rattus norvegicus [17] = test: (§3) Antithrombotic activity in thromboplastin and stasis-induced Sprague-Dawley rat deep venous thrombosis model assessed as reduction in venous thrombosis at 1.84 mg/kg, sc administered 1 hr prior to thromboplastin addition for 20 secs followed by establishment of stasis for 20 mins relative to dHG-5; type: functional; settings: time 80.33 min, 1.339 h
Plasma [18] = test: as §1, with “of APTT by measuring activity potency of oligosaccharides multiplied by the percentage of oligosaccharides in dHG-5 preincubated for” for “of APTT preincubated for”; type: functional; settings: time 5 min
[19] = target: T3, Coagulation factor IX/VIII (Homo sapiens); test: as §2, with “complex) assessed as activity potency of oligosaccharides multiplied by the percentage of oligosaccharides in dHG-5” for “complex)”; type: protein-complex assay; settings: time 3.0 min
Coagulation factor IX [20] = target: T4, Coagulation factor IX; test: Inhibition of factor 9a (unknown origin) binding to immobilized biotinylated oHG-11 assessed as activity potency of oligosaccharides multiplied by the percentage of oligosaccharides in dHG-5 by biolayer interferometry relative to dHG-5
Rattus norvegicus [21] = test: as §3, with “venous thrombosis by measuring activity potency of oligosaccharides multiplied by the percentage of oligosaccharides in dHG-5 at 1.84” for “venous thrombosis at 1.84”; type: functional; settings: time 80.33 min, 1.339 h

SMILES: CC(=O)N[C@H]1[C@H](O[C@@H]([C@H](O[C@@H]2O[C@@H](C)[C@@H](OS(=O)(=O)[O-])[C@@H](OS(=O)(=O)O)[C@@H]2O)[C@@H](O)CO)[C@H](O)C(=O)[O-])O[C@H](COS(=O)(=O)[O-])[C@H](OS(=O)(=O)[O-])[C@@H]1O[C@@H]1O[C@H](C(=O)[O-])[C@@H](O[C@@H]2O[C@H](COS(=O)(=O)[O-])[C@H](OS(=O)(=O)[O-])[C@H](O[C@@H]3O[C@H](C(=O)[O-])[C@@H](O[C@@H]4O[C@H](COS(=O)(=O)[O-])[C@H](OS(=O)(=O)[O-])[C@H](O[C@@H]5O[C@H](C(=O)[O-])[C@@H](O[C@@H]6O[C@H](COS(=O)(=O)[O-])[C@H](OS(=O)(=O)[O-])[C@H](O[C@@H]7O[C@H](C(=O)[O-])[C@@H](O[C@@H]8O[C@H](COS(=O)(=O)[O-])[C@H](OS(=O)(=O)[O-])[C@H](O[C@@H]9O[C@H](C(=O)[O-])[C@@H](O[C@@H]%10O[C@H](COS(=O)(=O)[O-])[C@H](OS(=O)(=O)[O-])[C@H](O[C@@H]%11O[C@H](C(=O)[O-])[C@@H](O[C@@H]%12O[C@H](COS(=O)(=O)[O-])[C@H](OS(=O)(=O)[O-])[C@H](O[C@@H]%13OC(C(=O)O)=C[C@H](O[C@@H]%14O[C@@H](C)[C@@H](OS(=O)(=O)[O-])[C@@H](OS(=O)(=O)O)[C@@H]%14O)[C@H]%13O)[C@H]%12NC(C)=O)[C@H](O[C@@H]%12O[C@@H](C)[C@@H](OS(=O)(=O)[O-])[C@@H](OS(=O)(=O)O)[C@@H]%12O)[C@H]%11O)[C@H]%10NC(C)=O)[C@H](O[C@@H]%10O[C@@H](C)[C@@H](OS(=O)(=O)[O-])[C@@H](OS(=O)(=O)O)[C@@H]%10O)[C@H]9O)[C@H]8NC(C)=O)[C@H](O[C@@H]8O[C@@H](C)[C@@H](OS(=O)(=O)[O-])[C@@H](OS(=O)(=O)O)[C@@H]8O)[C@H]7O)[C@H]6NC(C)=O)[C@H](O[C@@H]6O[C@@H](C)[C@@H](OS(=O)(=O)[O-])[C@@H](OS(=O)(=O)O)[C@@H]6O)[C@H]5O)[C@H]4NC(C)=O)[C@H](O[C@@H]4O[C@@H](C)[C@@H](OS(=O)(=O)[O-])[C@@H](OS(=O)(=O)O)[C@@H]4O)[C@H]3O)[C@H]2NC(C)=O)[C@H](O[C@@H]2O[C@@H](C)[C@@H](OS(=O)(=O)[O-])[C@@H](OS(=O)(=O)O)[C@@H]2O)[C@H]1O.[Na+].[Na+].[Na+].[Na+].[Na+].[Na+].[Na+].[Na+].[Na+].[Na+].[Na+].[Na+].[Na+].[Na+].[Na+].[Na+].[Na+].[Na+].[Na+].[Na+].[Na+].[Na+].[Na+].[Na+].[Na+].[Na+].[Na+].[Na+].[Na+]
- inhibition [1]: inactive
- inhibition (active/not active) [2]: inactive
- inhibition [3]: inactive
- inhibition [4]: inactive
- inhibition [5]: inactive
- inhibition [6]: inactive
- inhibition [7]: inactive
- inhibition [8]: inactive
- inhibition [9]: inactive
- inhibition [10]: inactive
- inhibition [11]: Active
- inhibition [12]: Active
- inhibition [13]: inactive
- Ratio (Plasma [14]): 232.47 U
- Ratio [15]: 384 U
- Ratio (Coagulation factor IX [16]): 177 U
- Ratio (Rattus norvegicus [17]): 244.26 U
- Ratio (Plasma [18]): 15.39 U
- Ratio [19]: 25.4 U
- Ratio (Coagulation factor IX [20]): 11.7 U
- Ratio (Rattus norvegicus [21]): 16.12 U
